Measurements as given in patent US9040693B2, “Fused heterocyclic derivative, medicinal composition containing the same, and medicinal use thereof” (KISSEI PHARMACEUTICAL CO., LTD., priority 2005, dated 2015).

How the values were obtained:
[1] = target: human GnRH receptor1 (GnRHR1) (Homo sapiens (Human), UniProt P30968); experiment: Assay of GnRH antagonizing effect: inhibition of GnRH-stimulated intracellular calcium flux in HEK293 cells transiently expressing human GnRHR1; assay type: cell-based; conditions: 5 nM GnRH, FLIPR calcium dye, read-out: IC50 (drug concentration at which 50% GnRH-stimulated intracellular calcium flux was inhibited)
Source text: 1) Cloning and Construction of the Vector Expressing Human GnRH Receptor1 (GnRHR1)
Using cDNA deprived from human pituitary (BECTON DICKINSON) as a template, the DNA fragment coding 45 to 1115 bp of human GnRHR1 (Accession No. L03380), which was reported by Kakar et al., was amplified by PCR method and inserted into the multi-cloning site of pcDNA3.1(+) (Invitrogen). The DNA sequence inserted was perfectly matched to the previously reported sequence.
2) Preparation of HEK293 (Human Embryonic Kidney) Cells Expressing Human GnRH Receptor1
The expression vector introduced human GnRHR1 gene was transfected into cultured HEK293 cells (medium : MEM, 10% FCS, containing antibiotics, non-essential amino acids and pyruvic acid) by means of lipofection with the use of Lipofectamine2000 (Invitrogen). After transfection, the cells were cultured for 2 days, and used for examinations.
3) Assay of GnRH Antagonizing Effect
Antagonizing effect of compounds for human GnRHR1 was evaluated by change of calcium levels in GnRH-stimulated cells. After removing the culture medium of HEK293 cells transiently expressing human GnRHR1, cells were washed with 200 μL piper well of the washing buffer (Hank's Balanced Salt Solutions, 20 mM N-2-hydroxyethylpiperazine-N′-2-ethanesulfonic acid, 1.3 mM calcium chloride, 0.5 mM magnesium chloride, 0.4 mM magnesium sulfate). One hundred μL of the Ca^2+sensitive dye solution (FLIPR Calcium Assay Kit (Molecular Devices)) was added to the well, and the cells were incubated for 1 hour at 37° C., 5% CO2. Then, intracellular calcium levels were determined under the following condition by using FLEX STATION (Molecular Devices). In the equipment, which was warmed to 37° C., 50 μL of test compound diluted with the measurement buffer (the washing buffer with 0.1% Albumin bovine serum) was added to the well. After 1 minute, 50 μL of 5 nM GnRH was added to the well. The drug concentration, at which 50% GnRH-stimulated intracellular calcium flux was inhibited (IC50 value), was calculated using logit plot (Table 108).

[2] = Assay for oral absorbability: plasma drug concentration in rats after intravenous (1 mg/kg) and oral (3 mg/kg) administration (Cmax, bioavailability, C360); assay type: in vivo; conditions: SD rats; for bioavailability / Cmax: male, rat, plasma; for bioavailability: oral 3 mg/kg vs intravenous 1 mg/kg; for Cmax / C360 (plasma drug concentration at 360 minutes after administration): oral administration, 3 mg/kg; for Cmax: read-out: Cmax (maximum plasma drug concentration); for availability by oral administration (in words) / blood concentration 6 hours after oral administration, sustainability (in words): oral 3 mg/kg; for availability by oral administration (in words): compared with the compounds of Example 22 (sulfonamide) and Example 95 (amide); for blood concentration 6 hours after oral administration, sustainability (in words): 360 minutes, compared with Control compounds 1 and 2; for C360 (plasma drug concentration at 360 minutes after administration): class symbols
Method: Assay for Oral Absorbability
1) Preparation of the Samples for Measurement of the Drug Concentration After Intravenous Injection to the Tail Vein
As experimental animal, overnight fasted SD rats (Charles River, male, 7 weeks of age, 170-210 g) were used. One mg of a test compound was dissolved by adding 0.2 mL of N,N-dimethylacetoamide, 0.798 mL of saline and 0.002 mL of 2N NaOH, and then 1.0 mg/mL solution was prepared. The body weights of rats were measured, and the solution of the test compound was injected intravenously to the tail vein of unanesthetized rats at the dose of 1 mL/kg (1 mg/kg). The intravenous injection to the tail vein was performed with 26 G injection needle and 1 mL syringe. The sampling times for collection of blood were 2, 15, 60, 120, 240 and 360 minutes after the intravenous injection to the tail vein. The blood was centrifuged, and the plasma was used as the sample for measurement of the drug concentration in blood.
2) Preparation of the Samples for Measurement of the Drug Concentration After Oral Administration
As experimental animal, overnight fasted SD rats (Charles River, male, 7 weeks of age, 170-210 g) were used. Three mg of a test compound was dissolved by adding 0.2 mL of N,N-dimethylacetoamide, 9.794 mL of 0.5% aqueous sodium methylcellulose solution and 0.006 mL of 2N NaOH, and then 0.3 mg/mL solution was prepared. The body weights of rats were measured, and the solution of the test compound was administered orally at the dose of 10 mL/kg (3 mg/kg). The oral administration was performed with gastric tube for rat and 2.5 mL syringe. The sampling times for collection of blood were 15, 30, 60, 120, 240 and 360 minutes after the oral administration. The blood was centrifuged, and the plasma was used as the sample for measurement of the drug concentration in blood.
3) Measurement of the Drug Concentration
To 0.025 mL of the plasma obtained in 1) and 2) described above, 0.1 mL of an adequate internal standard material was added according to the usual method, and then deproteinization was performed by adding 0.875 mL of acetonitrile. After centrifugation, 0.005 mL of the supernatant was injected into LC-MS/MS. The drug concentration in plasma was measured by LC-MS/MS method under the conditions as follows. To 0.05 mL of the blank plasma were added the internal standard material and various test compounds adequately according to the usual method, similar operating described above was done, and then the standard curves were prepared.
Each area under the plasma drug concentration-time curve by intravenous injection to the tail vein and oral administration of the test compound was estimated with WinNonlin Professional by Pharsight Corporation from the plasma drug concentration at each time obtained from the above mentioned method, and then the bioavailability (%) was calculated based on the following formula.
Bioavailability (%)={[(Area under the plasma drug concentration-time curve by oral administration)/3]/(area under the plasma drug concentration -time curve by intravenous injection to the tail vein)}×100
In the oral administration, the maximum plasma drug concentration (Cmax), bioavailability and the plasma drug concentration at 360 minutes after administration (C360) are shown in Tables 110 to 112.

human GnRH receptor1 (GnRHR1), sequence (P30968 whole entry): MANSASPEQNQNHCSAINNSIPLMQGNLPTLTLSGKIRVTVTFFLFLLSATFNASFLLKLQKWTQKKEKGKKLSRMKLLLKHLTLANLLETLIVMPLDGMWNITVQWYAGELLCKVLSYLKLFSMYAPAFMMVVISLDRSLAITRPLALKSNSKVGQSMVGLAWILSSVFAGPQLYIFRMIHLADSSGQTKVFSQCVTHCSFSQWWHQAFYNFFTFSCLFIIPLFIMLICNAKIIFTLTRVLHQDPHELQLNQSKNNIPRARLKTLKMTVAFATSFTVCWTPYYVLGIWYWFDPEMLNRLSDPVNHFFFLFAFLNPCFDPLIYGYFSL

| SMILES | IC50 [1] | bioavailability [2] | Cmax [2] | availability by oral administration (in words) [2] | blood concentration 6 hours after oral administration, sustainability (in words) [2] | C360 (plasma drug concentration at 360 minutes after administration) [2] |
| --- | --- | --- | --- | --- | --- | --- |
| O=c1[nH]c2ccsc2c(=O)n1-c1cc(S(=O)(=O)N2CCCc3ccccc32)ccc1Cl [Example 2] | 199 nM | – | – | – | – | – |
| O=c1[nH]c2sccc2c(=O)n1-c1cc(S(=O)(=O)N2CCCc3ccccc32)ccc1Cl [Example 3] | 80 nM | – | – | – | – | – |
| Cc1cccc(N(C)S(=O)(=O)c2ccc(Cl)c(-n3c(=O)[nH]c4sccc4c3=O)c2)c1 [Example 17] | 101 nM | – | – | – | – | – |
| O=C(O)c1scc2[nH]c(=O)n(-c3cc(S(=O)(=O)N4CCCc5ccccc54)ccc3Cl)c(=O)c12 [Example 22, 5-Carboxy-3-[2-chloro-5-(3,4-dihydroquinolin-1(2H)-yl-sulfonyl)phenyl]thieno[3,4-d]pyrimidine-2,4(1H,3H)-dione] | 2 nM | 11% | 342 ng/mL | – | – | – |
| Cc1ccccc1COc1ccc(Cl)c(-n2c(=O)[nH]c3csc(C(=O)O)c3c2=O)c1 [Example 25] | 85 nM | – | – | – | – | – |
| CNC(=O)c1scc2[nH]c(=O)n(-c3cc(S(=O)(=O)N4CCCc5ccccc54)ccc3Cl)c(=O)c12 [Example 31, 5-Methylcarbamoyl-3-[2-chloro-5-(3,4-dihydroquinolin-1(2H) -ylsulfonyl)phenyl]thieno[3,4-d]pyrimidine-2,4(1H,3H)-dione] | 272 nM | – | – | – | – | – |
| COc1cccc(F)c1C(C)Oc1ccc(F)c(-n2c(=O)[nH]c3csc(C(=O)O)c3c2=O)c1 (stereo not drawn) [Example 48, 5-Carboxy-3-{2-fluoro-5-[1-(2-fluoro-6-methoxyphenyl) -ethoxy]phenyl}[3,4-d]pyrimidine-2,4(1H,3H)-dione] | 29 nM | 65% | 14500 ng/mL | more excellent availability | – | – |
| CN(C(=O)c1ccc(Cl)c(-n2c(=O)[nH]c3csc(C(=O)O)c3c2=O)c1)c1ccccc1 [Example 95] | 19 nM | – | 322 ng/mL | – | – | – |
| CC(C)(C(=O)c1ccc(Cl)c(-n2c(=O)[nH]c3csc(C(=O)O)c3c2=O)c1)c1ccccc1 [Example 146] | 10 nM | – | 17900 ng/mL | more excellent availability | maintain their blood concentrations 6 hours after the oral administrations | A (A: >1000 ng/mL) |
| COc1ccc(F)cc1C(C)(C)Sc1ccc(F)c(-n2c(=O)[nH]c3csc(C(=O)O)c3c2=O)c1 [Example 191] | 17 nM | – | 13500 ng/mL | more excellent availability | – | – |
| CC(C)(c1ccccc1)S(=O)(=O)c1ccc(F)c(-n2c(=O)[nH]c3csc(C(=O)O)c3c2=O)c1 [Example 202, 5-Carboxy-3-[2-fluoro-5-(1-methyl-1-phenylethylsulfonyl) -phenyl]thieno[3,4-d]pyrimidine-2,4(1H,3H)-dione] | 20 nM | – | 1310 ng/mL | more excellent availability | maintain their blood concentrations 6 hours after the oral administrations | B (B: 300 ng/mL to 1000 ng/mL) |
| COc1cc(F)c(-n2c(=O)[nH]c3csc(C(=O)O)c3c2=O)cc1OCc1c(OC)ccc(F)c1F [Example 233, 5-Carboxy-3-[2-fluoro-5-(2,3-difluoro-6-methoxybenzyloxy) -4-methoxyphenyl]thieno[3,4-d]pyrimidine-2,4(1H,3H)-dione] | 15 nM | – | 25000 ng/mL | more excellent availability | maintain their blood concentrations 6 hours after the oral administrations | A (A: >1000 ng/mL) |
| CC(C)(Oc1ccc(Cl)c(-n2c(=O)[nH]c3csc(C(=O)O)c3c2=O)c1)c1ccccc1 [Example 271] | – | – | 17600 ng/mL | more excellent availability | maintain their blood concentrations 6 hours after the oral administrations | A (A: >1000 ng/mL) |
| COCCOc1ccc(F)c(F)c1COc1ccc(F)c(-n2c(=O)[nH]c3csc(C(=O)O)c3c2=O)c1 [Example 367] | 15 nM | – | 14100 ng/mL | more excellent availability | maintain their blood concentrations 6 hours after the oral administrations | A (A: >1000 ng/mL) |
| COc1cc(F)c(-n2c(=O)[nH]c3csc(C(=O)O)c3c2=O)cc1COc1c(OC)ccc(F)c1F [Example 414] | 42 nM | – | 25600 ng/mL | more excellent availability | maintain their blood concentrations 6 hours after the oral administrations | A (A: >1000 ng/mL) |
| COc1cc(F)c(-n2c(=O)[nH]c3csc(C(=O)O)c3c2=O)cc1CN(C)c1c(F)cccc1F [Example 420] | 29 nM | – | 15200 ng/mL | more excellent availability | maintain their blood concentrations 6 hours after the oral administrations | B (B: 300 ng/mL to 1000 ng/mL) |
